Reference: publication PMC9202104 (BMC Biology, 2022)
Like-named read-outs stand apart in the source and are kept apart here.

Experiments:
[1] = tested on: 8 human ZIKV strains (PAN2016, R116265, PAN2015, FLR, R103451, PRVABC59, PLCal_ZV, IbH 30656); experiment: microbe, parasite or virus in culture; assay type: cell-based; conditions: Zika virus, read-out: Average IC50 (human strains)
Protocol: (§1) After removal of the unbound compounds by centrifugation (after addition of 3% PEG-6000), ZIKV was incubated with Vero E6 cells in 24-well plates at 37°C for 1 h. The cells were then washed with PBS, overlaid with DMEM containing 1% carboxymethyl cellulose and 2% FBS, and cultured at 37°C for 4–5 days, followed by being stained with 0.5% crystal violet. […] Plaques in each well were calculated, and IC50 of compounds for each compound was calculated using the CalcuSyn computer program.

[2] = tested on: ZIKV human strain PAN2016 (2016/Panama); experiment: Plaque assay, inhibition of ZIKV infection (strain PAN2016); conditions: for SI (CC50/IC50): CC50 Vero E6 / IC50 ZIKV PAN2016
Protocol: as §1

[3] = tested on: ZIKV human strain R103451; experiment: Plaque assay, inhibition of ZIKV infection (strain R103451); assay type: cell-based; conditions: Zika virus, Vero C1008; plaque assay, Vero E6 cells, human strain; read-out: IC50 R103451
Protocol: as §1

[4] = tested on: ZIKV human strain FLR; experiment: Plaque assay, inhibition of ZIKV infection (strain FLR); assay type: cell-based; conditions: Zika virus, Vero C1008; plaque assay, Vero E6 cells, human strain; read-out: IC50 FLR
Protocol: as §1

[5] = tested on: ZIKV human strain PRVABC59; experiment: Plaque assay, inhibition of ZIKV infection (strain PRVABC59); assay type: cell-based; conditions: Zika virus, Vero C1008; plaque assay, Vero E6 cells, human strain; read-out: IC50 PRVABC59
Protocol: as §1

[6] = tested on: ZIKV rhesus macaque strain MR 766; experiment: Plaque assay, inhibition of ZIKV infection (strain MR 766); assay type: cell-based; conditions: Zika virus, Vero C1008; plaque assay, Vero E6 cells, rhesus strain; read-out: IC50 MR 766
Protocol: as §1

[7] = tested on: ZIKV human strain PAN2015; experiment: Plaque assay, inhibition of ZIKV infection (strain PAN2015); assay type: cell-based; conditions: Zika virus, Vero C1008, Vero E6 cells
Protocol: as §1

[8] = tested on: ZIKV human strain IbH 30656; experiment: Plaque assay, inhibition of ZIKV infection (strain IbH 30656); assay type: cell-based; conditions: Zika virus, Vero C1008; plaque assay, Vero E6 cells, human strain; read-out: IC50 IbH 30656
Protocol: as §1

[9] = tested on: Vero E6 cells; experiment: Cytotoxicity, Cell Counting Kit-8, Vero E6 cells; assay type: cell-based; conditions: African green monkey, 3 days
Protocol: (§2) Briefly, compounds at 2-fold serial dilutions were added to the respective cells (2.0×10^4/well) pre-seeded in 96-well plates. The cells were cultured at 37°C in the presence of 5% CO2 for 3 days, […] incubated with CCK8 solution, followed by measurement of absorbance at 450 nm (A450 value), using a microplate reader (Infinite F200PRO, Tecan, Morrisville, NC, USA). CC50 of compounds was calculated using the CalcuSyn program.

[10] = Cytotoxicity, Cell Counting Kit-8, Vero E6 cells; assay type: cell-based; conditions: African green monkey, CC50 Vero E6
Protocol: as §2

[11] = tested on: ZIKV mosquito strain MEX 2-81; experiment: Plaque assay, inhibition of ZIKV infection (strain MEX 2-81); assay type: cell-based; conditions: Zika virus, Vero C1008; plaque assay, Vero E6 cells, mosquito strain; read-out: IC50 MEX 2-81
Protocol: as §1

[12] = tested on: ZIKV human strain R116265; experiment: Plaque assay, inhibition of ZIKV infection (strain R116265); assay type: cell-based; conditions: Zika virus, Vero C1008, Vero E6 cells
Protocol: as §1

[13] = tested on: ZIKV human strain PLCal_ZV; experiment: Plaque assay, inhibition of ZIKV infection (strain PLCal_ZV); assay type: cell-based; conditions: Zika virus, Vero C1008; plaque assay, Vero E6 cells, human strain; read-out: IC50 PLCal_ZV
Protocol: as §1

[14] = tested on: ZIKV infection; conditions: read-out: IC50 against ZIKV infection (reported); cited from earlier work
[15] = Zika virus, Vero C1008, in Homo sapiens, read-out: IC50 against infection of ZIKV PAN2016, plaque assay, Vero E6 cells
[16] = read-out: IC50 against infection of ZIKV PAN2016, plaque assay, Vero E6 cells

Structure (SMILES)	IC50 [1]	IC50 [2, 15]	IC50 [2, 16]	IC50 [3]	IC50 [4]	IC50 [5]	IC50 [6]	IC50 [7]	IC50 [8]	CC50 [9]	CC50 at 3 days [10]	IC50 [11]	IC50 [12]	IC50 [13]	IC50 [14]	SI (CC50/IC50) [2]
Cc1cc2c(C(C)C)c(O)c(O)c3c2c(c1-c1c(C)cc2c(C(C)C)c(O)c(O)c4c2c1OC4N)OC3N (stereo not shown) [ST069299]	3 µM	2.3 µM	2.34 ± 0.06 µM	3.9 µM	3.3 µM	3.3 µM	4.9 µM	2.3 µM	2.5 µM	25.9 ± 2.7 µM	25.9 µM	3.9 µM	2.6 µM	4 µM	–	–
Oc1cccc(-c2c3nc(c(-c4cccc(O)c4)c4ccc([nH]4)c(-c4cccc(O)c4)c4nc(c(-c5cccc(O)c5)c5ccc2[nH]5)CC4)C=C3)c1 [Temoporfin]	–	–	–	–	–	–	–	–	–	–	–	–	–	–	1.1 µM	–
Cc1cc2nc[nH]c2c(/N=C/c2c(O)c(O)c(C(C)C)c3cc(C)c(-c4c(C)cc5c(C(C)C)c(O)c(O)c(/C=N/c6c(C)c(C)cc7nc[nH]c67)c5c4O)c(O)c23)c1C [ST092971]	6.6 µM	5 µM	4.98 ± 0.01 µM	6.6 µM	6.9 µM	9.1 µM	5.2 µM	5 µM	5.2 µM	72.1 ± 1.91 µM	72.1 µM	13.5 µM	8 µM	6.7 µM	–	14.48
Cc1cc2c(C(C)C)c(O)c(O)c(/C=N/NC(=O)C(C)C)c2c(O)c1-c1c(C)cc2c(C(C)C)c(O)c(O)c(/C=N/NC(=O)C(C)C)c2c1O [ST086273]	5.5 µM	4.8 µM	4.93 ± 0.7 µM	7 µM	4.2 µM	4 µM	5.5 µM	5 µM	5.4 µM	50.5 ± 3.36 µM	50.5 µM	2.8 µM	7.9 µM	5.9 µM	–	10.23
CC(C)OC(=O)[C@H](C)N[P@](=O)(OC[C@H]1O[C@@H](n2ccc(=O)[nH]c2=O)[C@](C)(F)[C@@H]1O)Oc1ccccc1 [Sofosbuvir]	–	–	–	–	–	–	–	–	–	–	–	–	–	–	9.6 µM	–
